Laboratory results published in US5811441A, “Isoxazoline fibrinogen receptor antagonists” (The DuPont Merck Pharmaceutical Company, priority 1997, dated 1998).
Structures can show the parent of a compound that is named as a salt.

The molecules below were run on platelet aggregation (platelet rich plasma (PRP)) (assay: Platelet Aggregation Assay (no esterase), platelet rich plasma). Conditions: human platelet rich plasma (PRP), concentration inhibiting platelet aggregation by 50% relative to control.
Assay type: cell-based
Protocol: Platelet Aggregation Assay:
venous blood was obtained from the arm of a healthy human donor who was drug-free and aspirin-free for at least two weeks prior to blood collection. Blood was collected into 10 mL citrated Vacutainer tubes. The blood was centrifuged for 15 minutes at 150×g at room temperature, and platelet-rich plasma (PRP) was removed. The remaining blood was centrifuged for 15 minutes at 1500×g at room temperature, and platelet-poor plasma (PPP) was removed. Samples were assayed on a aggregometer (PAP-4 Platelet Aggregation Profiler), using PPP as the blank (100% transmittance). […] of PRP was added to each micro test tube, and transmittance was set to 0%. 20 μL of various agonists (ADP, collagen, arachidonate, epinephrine, thrombin) were added to each tube, and the aggregation profiles were plotted (% transmittance versus time). The results are expressed as % inhibition of agonist-induced platelet aggregation. For the IC50 evaluation, the test compounds were added at various concentrations prior to the activation of the platelets.
Table A below sets forth the antiplatelet activity of representative compounds of the present invention. The indicated compounds were tested for their ability to inhibit platelet aggregation (using platelet rich plasma (PRP)). The IC50 value (the concentration of antagonist which inhibits platelet aggregation by 50% relative to a control lacking the antagonist) is shown. In Table A the IC50 values are expressed as: +++=IC50 of <1 μM; ++=IC50 of 1-50 μM; +=IC50 of 50-100 μM (μM=micromolar).

Question: With Cc1noc(C)c1S(=O)(=O)N[C@@H](CNC(=O)C[C@@H]1CC(c2ccc(C(=N)N)cc2)=NO1)C(=O)O [N^2-(3,5-Dimethylisoxazole-4-sulfonyl)-N^3-[3-(4-amidinophenyl)isoxazolin-5(S)-ylacetyl]-(S)-2,3-diamino-propionate Trifluoroacetate Salt] as the molecule, how does the IC50 read?
Answer: < 1 µM

Question: Cc1noc(C)c1S(=O)(=O)N[C@@H](CNC(=O)C[C@H]1CC(c2ccc(C(=N)N)cc2)=NO1)C(=O)O [N^2-(3,5-dimethylisoxazole-4-sulfonyl)-N^3-[3-(4-amidinophenyl)isoxazolin-5(R)-ylacetyl]-(S)-2,3-diaminopropionate Trifluoroacetate Salt] was tested. Which IC50 did it give?
Answer: < 1 µM

Question: How did the IC50 turn out when Cc1noc(C)c1S(=O)(=O)N[C@@H](CNC(=O)CC1CC(c2ccc(C(=N)N)cc2)=NO1)C(=O)O (stereo partly drawn) [N^2-(3,5-dimethylisoxazole-4-sulfonyl)-N^3-[3-(4-amidinophenyl)isoxazolin-5(R,S)-ylacetyl]-(S)-2,3-diaminopropionateTrifluoroacetate Salt] was run?
Answer: < 1 µM
